Measured values as given in patent US6686382B2, “Sulfonamides and derivatives thereof that modulate the activity of endothelin” (Encysive Pharmaceuticals Inc., priority 1999, dated 2004).
Where two headings read alike, the source gives them in different places. Values belong to the molecule of their own block, whether it stands above or below them.

Assays:
isolated vascular strips = settings: read-out: EC50, contractile agent; cited from earlier work
ETA receptor = settings: read-out: IC50, inhibition of 125I-labelled endothelin-1 binding, cited from earlier work
ETB receptors = settings: concentrations up to 100 μM; cited from earlier work
human ETA receptors = biological target: T1, human ETA receptors (Homo sapiens, UniProt P25101); assay: Endothelin binding inhibition, Binding Test #1: inhibition of binding to ETA receptors (TE 671 cell membranes); settings: relative to N-(4-chloro-3-methyl-5-isoxazolyl)-2-{[3,4-(methylenedioxy)-6-methylphenyl)acetyl]-thiophene-3-sulfonamide (= 1.0)
T1 construct: endogenous in cells; host or cells: TE 671 cells (ATCC HTB 139), membrane preparation
T1 sequence (P25101 21-427): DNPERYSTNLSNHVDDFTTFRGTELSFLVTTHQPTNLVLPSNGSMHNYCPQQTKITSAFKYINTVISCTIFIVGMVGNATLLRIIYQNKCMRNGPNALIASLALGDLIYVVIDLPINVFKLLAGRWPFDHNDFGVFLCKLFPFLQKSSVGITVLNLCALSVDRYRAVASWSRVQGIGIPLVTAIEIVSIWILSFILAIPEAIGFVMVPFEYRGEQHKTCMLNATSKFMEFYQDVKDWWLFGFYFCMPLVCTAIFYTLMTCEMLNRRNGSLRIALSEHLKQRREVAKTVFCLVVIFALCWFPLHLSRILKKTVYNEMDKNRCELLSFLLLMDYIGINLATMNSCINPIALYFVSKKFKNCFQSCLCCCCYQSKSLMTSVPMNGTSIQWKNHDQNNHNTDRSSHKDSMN
Excerpt: (§1) Compounds that are potential endothelin antagonists are identified by testing their ability to compete with ^125I-labeled ET-1 for binding to human ETA receptors or ETB receptors present on isolated cell membranes. The effectiveness of the test compound as an antagonist or agonist of the biological tissue response of endothelin can also be assessed by measuring the effect on endothelin induced contraction of isolated rat thoracic aortic rings. The ability of the compounds to act as antagonists or agonists for ETB receptors can be assess by testing the ability of the compounds are to inhibit endothelin-1 induced prostacyclin release from cultured bovine aortic endothelial cells.
(§2) A. Endothelin Binding Inhibition—Binding Test #1: Inhibition of Binding to ETA Receptors
(§3) TE 671 cells (ATCC Accession No. HTB 139) express ETA receptors. These cells were grown to confluence in T-175 flasks. Cells from multiple flasks were collected by scraping, pooled and centrifugedfor 10 min at 190×g. The cells were resuspended in phosphate buffered saline (PBS) containing 10 mM EDTA using a Tenbroeck homogenizer. The suspension was centrifuged at 4° C. at 57,800×g for 15 min, the pellet was resuspended in 5 ml of buffer A (5 mM HEPES buffer, pH 7.4 containing aprotinin (100 KIU/ml)) and then frozen and thawed once. 5 ml of Buffer B (5 mM HEPES Buffer, pH 7.4 containing 10 mM MnCl2 and 0.001% deoxyribonuclease Type 1) was added, the suspension mixed by inversion and then incubated at 37° C. for 30 minutes. The mixture was centrifuged at 57,800×g as described above, the pellet washed twice with buffer A and then resuspended in buffer C (30 mM HEPES buffer, pH 7.4 containing aprotinin (100 KIU/ml) to give a final protein concentration of 2 mg/ml and stored at −70° C. until use.
(§4) The membrane suspension was diluted with binding buffer (30 mM HEPES buffer, pH 7.4 containing 150 mM NaCl, 5 mM MgCl2, 0.5% Bacitracin) to a concentration of 8 μg/50 μl. ^125I-endothelin-1 (3,000 cpm, […]) was added to 50 μL of either: (A) endothelin-1 (for non specific binding) to give a final concentration 80 nM); (B) binding buffer (for total binding); or (C) a test compound (final concentration 1 nM to 100 μM). The membrane suspension (50 μL), containing up to 8 μg of membrane protein, was added to each of (A), (B), or (C). Mixtures were shaken, and incubated at 4° C. for 16-18 hours, and then centrifuged at 4° C. for 25 min at 2,500×g. Alternatively, the incubation was conducted at 24° C. […] This, must be kept in mind when comparing IC50 concentrations among compounds provided herein.
(§5) The supernatant, containing unbound radioactivity, was decanted and the pellet counted on a Genesys multiwell gamma counter. The degree of inhibition of binding (D) was calculated according to the following equation: [formula]
Each test was generally performed in triplicate.

[1] = tested on: ETA receptors and ETB receptors; assay: Endothelin binding inhibition, ETA (TE 671) and ETB (transfected COS7) receptors: selectivity; design: species or system human; settings: antagonism of ETA receptors over ETB receptors
Excerpt: as §1, §2, §3, §4, §5
B. Endothelin Binding Inhibition—Binding Test #2: Inhibition of Binding to ETB Receptors
COS7 cells were transfected with DNA encoding the ETB receptor, The resulting cells, which express the human ETB receptor, were grown to confluence in T-150 flasks. Membrane was prepared as described above. The binding assay was performed as described above using the membrane preparation diluted with binding buffer to a concentration of 1 μg/50 μl.
Briefly, the COS7 cells, described above, that had been transfected with DNA encoding the ETB receptor and express the human ETB receptor on their surfaces were grown to confluence in T-175 flasks. […]

[2] = Pharmacokinetic properties (oral availability, elimination half-life, Cmax); type: in vivo
Excerpt: As used herein, bioavailability or oral availability refers to the rate and extent of absorption. Methods for determining bioavailability or oral availability are well known to those of skill in the art. For example, bioavailability or oral availability of any of the compounds described herein can be determined empirically by administration of the compound to an animal, followed by taking blood samples over time and measuring the blood concentration of the compound. In vivo half life (t1/2) is defined as the time it takes for the concentration of the compound in the blood to be reduced by one-half. Estimations of the area under the curve for intravenous administration can be used to estimate the area under the curve for oral administration, yielding bioavailability data. See, e.g., Milo Gibal (1991) Biopharmaceutics and Pharmacology, 4th edition (Lea and Sediger).

Molecule: endothelin-1: potent twenty-one amino acid peptide vasoconstrictor
EC50 (isolated vascular strips): 0.4 nM

Molecule: cyclo(D-Glu-L-Ala-allo-D-Ile-L-Leu-D-Trp) [BE-18257B]
IC50 (ETA receptor; aortic smooth muscle): 1400 nM | IC50 (ETA receptor; cultured aortic smooth muscle cells): 500 nM | IC50 (ETA receptor; ventricle membranes): 800 nM | inhibition of binding to receptors in tissues in which ETB receptors predominate (ETB receptors): fails to inhibit binding

ETA ACTIVITY (ETA antagonist activity relative to reference compound) (human ETA receptors): 17.9 | Selectivity (IC50 for ETB/IC50 for ETA) [1]: 119,000 | half-life ([2]; blood, read-out: t½ elim. (converted)): 5.3 h | Cmax ([2]; in vivo): 66 µg/mL | melting point: 176 to 178 °C
Molecule: Cc1cc(C)c(NC(=O)c2sccc2S(=O)(=O)Nc2onc(C)c2Cl)c(-c2ncco2)c1 [Compound 44, 3-{[(4-chloro-3-methyl-5-isoxazolyl)amino]sulfonyl}-N-[2,4-dimethyl-6-(1,3-oxazol-2-yl)phenyl]-2-thiophenecarboxamide]
